Assay results: article PMC2248166, “Quantitative peptide binding motifs for 19 human and mouse MHC class I molecules derived using positional scanning combinatorial peptide libraries” (Immunome Research, 2008)
Where a SMILES comes first, the peptide text is derived from it.

Target: HLA A*3201 (Homo sapiens, UniProt P04439, A270S/D101S/D185E/E176V/E277Q/F133L/G103R/G107R/G231S/H175R/I121M/I218V/I322F/K168Q/L105A/L300P/L318F/M331R/P208A/P217A/Q94H/R106L/R138Q/S129P/T104I/T323A/T345S/V100E/V321M/V358M)
Assay: biochemical
Format: binding

SMILES	IC50
CC[C@H](C)[C@H](NC(=O)[C@H](CO)NC(=O)[C@@H](NC(=O)[C@@H](NC(=O)[C@H](Cc1c[nH]c2ccccc12)NC(=O)[C@H](CCCCN)NC(=O)[C@H](CCSC)NC(=O)[C@H](CCSC)NC(=O)[C@@H](N)CCSC)[C@@H](C)CC)[C@@H](C)CC)C(=O)O [3102.0357] (H-MMMKWIISI-OH)	0.17 nM
CC[C@H](C)[C@H](NC(=O)[C@H](CC(C)C)NC(=O)[C@H](CC(N)=O)NC(=O)[C@H](C)NC(=O)[C@H](Cc1ccccc1)NC(=O)[C@H](CCCNC(=N)N)NC(=O)[C@H](CO)NC(=O)[C@@H](NC(=O)[C@@H](N)CCCNC(=N)N)[C@@H](C)CC)C(=O)O [3102.0360] (H-RISRFANLI-OH)	6.2 nM
CC[C@H](C)[C@H](N)C(=O)N[C@H](C(=O)N[C@@H](CCSC)C(=O)N[C@H](C(=O)N[C@@H](CC(N)=O)C(=O)N[C@@H](CO)C(=O)N[C@@H](CC(C)C)C(=O)N[C@H](C(=O)N[C@@H](Cc1ccc(O)cc1)C(=O)O)[C@@H](C)O)C(C)C)[C@@H](C)O [3102.0363] (H-ITMVNSLTY-OH)	96 nM
CC[C@H](C)[C@H](NC(=O)[C@H](CO)NC(=O)[C@@H](N)CCCCN)C(=O)N[C@@H](CC(N)=O)C(=O)N[C@H](C(=O)N[C@@H](CCC(=O)O)C(=O)N[C@@H](Cc1ccc(O)cc1)C(=O)N[C@@H](CCCNC(=N)N)C(=O)N[C@@H](Cc1ccccc1)C(=O)O)C(C)C [3102.0364] (H-KSINVEYRF-OH)	1.5 nM
CSCC[C@H](NC(=O)[C@@H](N)CCCCN)C(=O)N[C@@H](CC(=O)O)C(=O)N[C@@H](CC(N)=O)C(=O)NCC(=O)N[C@H](C(=O)N[C@@H](CC(C)C)C(=O)N[C@@H](CCC(=O)O)C(=O)N[C@@H](Cc1ccccc1)C(=O)O)[C@@H](C)O [3102.0365] (H-KMDNGTLEF-OH)	0.92 nM
CC[C@H](C)[C@H](NC(=O)[C@H](CO)NC(=O)[C@@H](NC(=O)[C@H](CCC(=O)O)NC(=O)[C@H](CC(N)=O)NC(=O)[C@H](Cc1ccc(O)cc1)NC(=O)[C@@H](NC(=O)[C@@H](NC(=O)[C@@H](N)CCCNC(=N)N)[C@@H](C)O)[C@@H](C)CC)[C@@H](C)O)C(=O)O [3102.0366] (H-RTIYNETSI-OH)	1 nM
CC[C@H](C)[C@H](NC(=O)[C@@H](NC(=O)[C@H](CC(C)C)NC(=O)[C@H](C)NC(=O)[C@@H](NC(=O)[C@@H](NC(=O)[C@@H](NC(=O)[C@@H](NC(=O)[C@@H](N)Cc1c[nH]cn1)[C@@H](C)CC)[C@@H](C)CC)[C@@H](C)CC)C(C)C)[C@@H](C)O)C(=O)O [3102.0368] (H-HIIIVALTI-OH)	79 nM
CC[C@H](C)[C@H](N)C(=O)N[C@H](C(=O)N[C@@H](Cc1ccc(O)cc1)C(=O)NCC(=O)N[C@@H](CCCNC(=N)N)C(=O)N[C@@H](CO)C(=O)N[C@@H](CC(N)=O)C(=O)N[C@@H](C)C(=O)N[C@H](C(=O)O)[C@@H](C)CC)C(C)C [3102.0369] (H-IVYGRSNAI-OH)	3.2 nM
CC[C@H](C)[C@H](NC(=O)[C@@H](NC(=O)[C@H](Cc1ccccc1)NC(=O)[C@H](CC(C)C)NC(=O)[C@H](Cc1ccccc1)NC(=O)[C@@H](NC(=O)[C@@H](NC(=O)[C@H](CC(C)C)NC(=O)[C@@H](N)CCCCN)[C@@H](C)CC)[C@@H](C)O)C(C)C)C(=O)O [3102.0370] (H-KLITFLFVI-OH)	0.41 nM
CC[C@H](C)[C@H](NC(=O)[C@@H](NC(=O)[C@H](Cc1ccc(O)cc1)NC(=O)[C@H](CCC(=O)O)NC(=O)[C@H](CCCCN)NC(=O)[C@H](Cc1ccccc1)NC(=O)[C@H](CC(N)=O)NC(=O)[C@H](CC(C)C)NC(=O)[C@@H](N)C(C)C)[C@@H](C)O)C(=O)O [3102.0371] (H-VLNFKEYTI-OH)	8.1 nM
CC[C@H](C)[C@H](NC(=O)[C@@H](NC(=O)[C@H](CC(C)C)NC(=O)[C@@H](NC(=O)[C@H](CO)NC(=O)[C@H](CO)NC(=O)[C@@H](NC(=O)[C@H](CO)NC(=O)[C@H](C)N)[C@@H](C)CC)C(C)C)[C@@H](C)O)C(=O)O [3102.0373] (H-ASISSVLTI-OH)	13 nM
CC[C@H](C)[C@H](NC(=O)[C@H](CC(N)=O)NC(=O)[C@H](Cc1ccc(O)cc1)NC(=O)[C@H](CC(=O)O)NC(=O)[C@@H](NC(=O)[C@H](Cc1ccc(O)cc1)NC(=O)[C@H](CC(N)=O)NC(=O)[C@H](CC(C)C)NC(=O)[C@@H](N)CCSC)C(C)C)C(=O)O [3102.0374] (H-MLNYVDYNI-OH)	1.6 nM
CC[C@H](C)[C@H](N)C(=O)N[C@@H](CC(C)C)C(=O)N1CCC[C@H]1C(=O)N[C@H](C(=O)N[C@H](C(=O)N[C@@H](Cc1ccccc1)C(=O)N[C@@H](CC(C)C)C(=O)N[C@@H](CO)C(=O)N[C@H](C(=O)O)[C@@H](C)CC)[C@@H](C)CC)C(C)C [3102.0375] (H-ILPVIFLSI-OH)	4.5 nM
CC[C@H](C)[C@H](NC(=O)[C@H](CCC(=O)O)NC(=O)[C@H](Cc1ccccc1)NC(=O)[C@H](CC(N)=O)NC(=O)[C@@H]1CCCN1C(=O)[C@H](CC(N)=O)NC(=O)[C@H](Cc1ccccc1)NC(=O)[C@@H](NC(=O)[C@@H](N)CC(C)C)[C@@H](C)O)C(=O)O [3102.0377] (H-LTFNPNFEI-OH)	5.2 nM
CC[C@H](C)[C@H](NC(=O)[C@H](Cc1c[nH]cn1)NC(=O)[C@@H](NC(=O)[C@H](CCSC)NC(=O)[C@H](CCSC)NC(=O)[C@H](CCCCN)NC(=O)[C@H](CCSC)NC(=O)[C@@H](NC(=O)[C@@H](N)CCSC)[C@@H](C)O)C(C)C)C(=O)O [3102.0378] (H-MTMKMMVHI-OH)	4.8 nM
CC[C@H](C)[C@H](NC(=O)[C@H](C)NC(=O)[C@H](Cc1ccc(O)cc1)NC(=O)[C@H](CO)NC(=O)[C@H](Cc1c[nH]cn1)NC(=O)[C@H](Cc1ccccc1)NC(=O)[C@H](CC(C)C)NC(=O)[C@H](CC(C)C)NC(=O)[C@@H](N)CC(C)C)C(=O)O [3102.0379] (H-LLLFHSYAI-OH)	11 nM
CC[C@H](C)[C@H](NC(=O)[C@@H](N)Cc1c[nH]cn1)C(=O)N[C@@H](Cc1ccc(O)cc1)C(=O)N[C@@H](Cc1ccccc1)C(=O)N[C@H](C(=O)N[C@@H](CO)C(=O)N[C@@H](CC(C)C)C(=O)N[C@@H](CC(C)C)C(=O)N[C@@H](CC(C)C)C(=O)O)C(C)C [3102.0380] (H-HIYFVSLLL-OH)	15 nM
CC(C)C[C@H](NC(=O)[C@@H](NC(=O)[C@@H](NC(=O)[C@@H](NC(=O)[C@@H](NC(=O)[C@@H](NC(=O)[C@H](CC(C)C)NC(=O)[C@@H](NC(=O)[C@@H](N)CCCCN)[C@@H](C)O)[C@@H](C)O)[C@@H](C)O)[C@@H](C)O)C(C)C)C(C)C)C(=O)O [3102.0381] (H-KTLTTTVVL-OH)	9.4 nM
CC[C@H](C)[C@H](N)C(=O)N[C@H](C(=O)N[C@H](C(=O)N[C@@H](Cc1ccc(O)cc1)C(=O)N[C@@H](Cc1ccccc1)C(=O)N[C@@H](CCCNC(=N)N)C(=O)N[C@@H](CCCNC(=N)N)C(=O)N[C@H](C(=O)N[C@H](C(=O)O)[C@@H](C)CC)[C@@H](C)O)C(C)C)[C@@H](C)O [3102.0382] (H-ITVYFRRTI-OH)	26 nM
CC[C@H](C)[C@H](NC(=O)[C@@H](NC(=O)[C@H](CC(C)C)NC(=O)[C@H](CO)NC(=O)[C@H](C)NC(=O)CNC(=O)[C@H](CC(N)=O)NC(=O)[C@H](CO)NC(=O)[C@@H](N)CC(C)C)[C@@H](C)O)C(=O)O [3102.0383] (H-LSNGASLTI-OH)	74 nM
CC[C@H](C)[C@H](NC(=O)[C@@H]1CCCN1C(=O)[C@H](CC(C)C)NC(=O)[C@@H](NC(=O)[C@H](CC(N)=O)NC(=O)[C@H](Cc1ccc(O)cc1)NC(=O)[C@H](CCSC)NC(=O)[C@@H](NC(=O)[C@@H](N)Cc1ccc(O)cc1)[C@@H](C)CC)[C@@H](C)CC)C(=O)O [3102.0384] (H-YIMYNILPI-OH)	39 nM
CC[C@H](C)[C@H](NC(=O)[C@@H](NC(=O)[C@H](CC(N)=O)NC(=O)[C@H](CC(N)=O)NC(=O)[C@H](Cc1ccc(O)cc1)NC(=O)[C@H](CC(C)C)NC(=O)[C@@H](NC(=O)[C@@H](NC(=O)[C@@H](N)Cc1c[nH]cn1)[C@@H](C)O)[C@@H](C)CC)[C@@H](C)O)C(=O)O [3102.0385] (H-HTILYNNTI-OH)	1.9 nM
CC[C@H](C)[C@H](NC(=O)[C@H](CCCCN)NC(=O)CNC(=O)[C@H](CC(N)=O)NC(=O)[C@@H](NC(=O)[C@@H](N)CCSC)[C@@H](C)O)C(=O)N[C@@H](CC(N)=O)C(=O)N[C@@H](CO)C(=O)N[C@@H](CC(C)C)C(=O)O [3102.0386] (H-MTNGKINSL-OH)	22 nM
CC[C@H](C)[C@H](N)C(=O)N[C@H](C(=O)N[C@@H](Cc1ccc(O)cc1)C(=O)N[C@@H](Cc1c[nH]c2ccccc12)C(=O)N[C@@H](CO)C(=O)N[C@@H](CCCNC(=N)N)C(=O)N[C@@H](Cc1ccccc1)C(=O)N[C@H](C(=O)N[C@H](C(=O)O)[C@@H](C)CC)[C@@H](C)O)[C@@H](C)O [3102.0387] (H-ITYWSRFTI-OH)	2.5 nM
CC[C@H](C)[C@H](NC(=O)[C@H](CO)NC(=O)[C@@H](NC(=O)CNC(=O)[C@H](CC(C)C)NC(=O)[C@@H](NC(=O)[C@H](CO)NC(=O)[C@H](CCSC)NC(=O)[C@@H](N)CCCCN)[C@@H](C)CC)C(C)C)C(=O)O [3102.0388] (H-KMSILGVSI-OH)	2.4 nM
CC[C@H](C)[C@H](NC(=O)[C@H](CC(N)=O)NC(=O)[C@@H](NC(=O)[C@@H](NC(=O)[C@@H](N)CO)[C@@H](C)O)[C@@H](C)CC)C(=O)N[C@@H](CS)C(=O)N[C@@H](CC(C)C)C(=O)N1CCC[C@H]1C(=O)N[C@@H](Cc1ccc(O)cc1)C(=O)O [3102.0390] (H-STINICLPY-OH)	32 nM
CC[C@H](C)[C@H](NC(=O)[C@H](CC(C)C)NC(=O)[C@H](Cc1c[nH]cn1)NC(=O)[C@@H](N)CCCNC(=N)N)C(=O)N[C@@H](Cc1ccccc1)C(=O)N[C@@H](CO)C(=O)N[C@@H](Cc1ccc(O)cc1)C(=O)N[C@@H](C)C(=O)N[C@@H](Cc1ccccc1)C(=O)O [3102.0393] (H-RHLIFSYAF-OH)	14 nM
CC[C@H](C)[C@H](NC(=O)[C@H](CO)NC(=O)[C@H](CS)NC(=O)[C@H](CCSC)NC(=O)[C@@H](N)C(C)C)C(=O)N[C@@H](CO)C(=O)N[C@@H](CC(C)C)C(=O)N[C@H](C(=O)N[C@@H](Cc1ccc(O)cc1)C(=O)O)[C@@H](C)O [3102.0394] (H-VMCSISLTY-OH)	11 nM
